In ChEMBL document CHEMBL1201862, “PubChem BioAssay data set” (2004):
Calls of active or inactive are those of the source.

Assays:
[1] = target: T1, RNA-binding protein pos-1 (Caenorhabditis elegans, UniProt G5EF15); assay: inhibitors of POS-1/mex-3 RNA binding, dose response, biochemical, fluorescence polarization (AID 1964);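 further: purified POS-1 fused to maltose binding protein made in E. coli; potency of compounds blocking POS-1 binding to fluorescent RNA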
T1 sequence (G5EF15 whole entry): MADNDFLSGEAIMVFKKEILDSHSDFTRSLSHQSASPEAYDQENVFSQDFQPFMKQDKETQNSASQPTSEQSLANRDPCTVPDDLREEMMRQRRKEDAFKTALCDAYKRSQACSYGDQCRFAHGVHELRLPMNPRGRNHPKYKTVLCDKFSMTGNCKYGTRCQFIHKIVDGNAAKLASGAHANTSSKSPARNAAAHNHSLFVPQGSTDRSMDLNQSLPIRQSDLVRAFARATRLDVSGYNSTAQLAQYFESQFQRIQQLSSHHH

[2] = target: T2, Zinc finger protein mex-5 (Caenorhabditis elegans, UniProt Q9XUB2); assay: MEX-5/TCR-2 RNA interaction inhibitors, dose response, biochemical, C. elegans, fluorescence polarization (AID 1960)
T2 sequence (Q9XUB2 whole entry): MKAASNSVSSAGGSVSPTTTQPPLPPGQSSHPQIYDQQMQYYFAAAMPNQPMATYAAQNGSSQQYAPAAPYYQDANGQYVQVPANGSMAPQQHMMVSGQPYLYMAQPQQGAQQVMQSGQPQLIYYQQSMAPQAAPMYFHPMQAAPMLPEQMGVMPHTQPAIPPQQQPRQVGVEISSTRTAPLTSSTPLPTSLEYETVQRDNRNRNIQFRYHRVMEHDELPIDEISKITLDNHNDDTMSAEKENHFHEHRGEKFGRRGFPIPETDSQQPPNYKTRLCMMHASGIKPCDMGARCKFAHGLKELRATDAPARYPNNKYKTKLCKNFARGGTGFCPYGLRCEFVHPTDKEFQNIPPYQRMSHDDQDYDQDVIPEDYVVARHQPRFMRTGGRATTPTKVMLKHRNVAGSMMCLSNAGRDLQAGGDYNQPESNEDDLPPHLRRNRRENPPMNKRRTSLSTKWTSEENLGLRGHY

[3] = target: Cytochrome P450 2C19 (Homo sapiens, UniProt P33261); assay: Cytochrome panel assay with activity outcomes. Panel member name: p450-cyp2c19 Compounds with AC50 equal or less than 10 uM are considered active; type: functional; conditions: read-out: AC50
Sequence of Cytochrome P450 2C19 (P33261 whole entry): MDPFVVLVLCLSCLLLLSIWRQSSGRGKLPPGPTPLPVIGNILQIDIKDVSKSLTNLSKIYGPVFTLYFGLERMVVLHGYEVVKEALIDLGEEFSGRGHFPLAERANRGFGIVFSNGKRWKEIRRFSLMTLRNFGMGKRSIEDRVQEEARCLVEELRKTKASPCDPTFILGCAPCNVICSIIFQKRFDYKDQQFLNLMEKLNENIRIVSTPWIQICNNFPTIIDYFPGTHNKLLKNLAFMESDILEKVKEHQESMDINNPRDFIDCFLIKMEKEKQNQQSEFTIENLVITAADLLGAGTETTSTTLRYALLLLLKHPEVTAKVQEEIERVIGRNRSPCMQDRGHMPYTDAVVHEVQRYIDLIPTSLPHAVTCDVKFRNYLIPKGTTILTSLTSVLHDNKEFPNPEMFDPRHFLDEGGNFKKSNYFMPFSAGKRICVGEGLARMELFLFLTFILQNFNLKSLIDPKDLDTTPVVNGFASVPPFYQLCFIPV

[4] = target: Cytochrome P450 3A4 (Homo sapiens, UniProt P08684);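 further: CYP3A4 tested as one member of a cytochrome P450 panel screen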
Sequence of Cytochrome P450 3A4 (P08684 whole entry): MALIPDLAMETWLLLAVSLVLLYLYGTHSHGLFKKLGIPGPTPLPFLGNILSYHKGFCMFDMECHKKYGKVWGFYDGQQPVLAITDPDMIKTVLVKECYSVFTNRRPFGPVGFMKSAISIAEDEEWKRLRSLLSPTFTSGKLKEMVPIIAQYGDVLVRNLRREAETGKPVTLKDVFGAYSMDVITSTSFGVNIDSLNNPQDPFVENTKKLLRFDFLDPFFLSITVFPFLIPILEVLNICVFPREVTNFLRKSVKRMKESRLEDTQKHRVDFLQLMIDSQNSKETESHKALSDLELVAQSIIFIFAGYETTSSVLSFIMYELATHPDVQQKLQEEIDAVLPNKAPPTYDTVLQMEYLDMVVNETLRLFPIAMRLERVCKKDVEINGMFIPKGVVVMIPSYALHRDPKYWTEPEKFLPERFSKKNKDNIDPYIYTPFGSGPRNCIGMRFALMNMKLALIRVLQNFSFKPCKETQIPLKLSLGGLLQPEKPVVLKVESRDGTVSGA

[5] = target: Cytochrome P450 2C9 (Homo sapiens, UniProt P11712)
Sequence of Cytochrome P450 2C9 (P11712 whole entry): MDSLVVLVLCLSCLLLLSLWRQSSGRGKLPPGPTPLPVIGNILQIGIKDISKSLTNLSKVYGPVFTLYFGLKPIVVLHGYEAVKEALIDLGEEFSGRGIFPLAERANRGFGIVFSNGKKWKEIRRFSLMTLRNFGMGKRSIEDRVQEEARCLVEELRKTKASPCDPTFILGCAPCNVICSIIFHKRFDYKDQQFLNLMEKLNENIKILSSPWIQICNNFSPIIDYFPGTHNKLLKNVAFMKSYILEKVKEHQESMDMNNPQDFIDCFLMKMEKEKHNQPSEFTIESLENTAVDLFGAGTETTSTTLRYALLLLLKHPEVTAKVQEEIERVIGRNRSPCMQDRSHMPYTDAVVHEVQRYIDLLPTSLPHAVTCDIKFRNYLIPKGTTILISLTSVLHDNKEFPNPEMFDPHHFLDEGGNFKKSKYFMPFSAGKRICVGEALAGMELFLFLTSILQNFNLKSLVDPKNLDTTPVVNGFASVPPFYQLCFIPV

[6] = Luminescence Cell-Based Dose Response HTS to Identify Activators of Luciferase Translation or Activity in H4 […] Cells. [Related pubchem assays: 1829 (Project Summary), 1814 (Primary HTS)]; type: functional
[7] = tested on: H4; assay: Luminescence Cell-Based Dose Response HTS to Identify Activators of 5'UTR Stem-Loop Driven Prion Protein mRNA Translation in H4 Neuroglioblastoma Cells. [Related pubchem assays: 1829 (Project Summary), 1814 (Primary HTS)]; type: functional; conditions: Homo sapiens
[8] = inhibitors of firefly luciferase expression or activity, dose response, H4 neuroglioma cells, luminescence (AID 1990); type: functional, cell-based
[9] = Luminescence Cell-Based Dose Response HTS to Identify Inhibitors of 5'UTR Stem-Loop Driven Prion Protein mRNA Translation in H4 Neuroglioblastoma Cells. [Related pubchem assays: 1827 (Project Summary), 1813 (Primary HTS)]; type: functional
[10] = inhibitors of SNCA 5'UTR-driven reporter translation, confirmation, H4 neuroglioma cells, luminescence (AID 1988); type: functional, cell-based
[11] = Luminescence Cell-Based Dose Retest to Confirm Inhibitors of Cancer Stem Cells. [Related pubchem assays (depositor defined):AID2717, AID2721]; type: functional; conditions: Homo sapiens
[12] = target: Nonstructural protein 1 (Influenza A virus, UniProt Q194T2); type: functional, Influenza A virus (A/California/07/2009(H1N1))
Sequence of Nonstructural protein 1 (Q194T2 whole entry): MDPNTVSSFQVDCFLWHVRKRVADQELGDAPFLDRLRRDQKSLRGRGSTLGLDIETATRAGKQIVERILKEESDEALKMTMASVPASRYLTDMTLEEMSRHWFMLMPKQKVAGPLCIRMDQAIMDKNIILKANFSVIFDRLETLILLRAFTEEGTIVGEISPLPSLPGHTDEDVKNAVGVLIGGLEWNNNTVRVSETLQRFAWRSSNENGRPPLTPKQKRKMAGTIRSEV

[13] = tested on: INS1; assay: beta cell apoptosis inhibitors, cytokine rescue, dose response, luminescence, retest (AID 449756); type: functional, cell-based; conditions: Rattus norvegicus;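 further: cell death triggered by IL-1 beta plus TNF-alpha plus IFN-gamma mixture; protective hits raise ATP signal compared with cytokine alone wells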
[14] = Shn3 3'UTR reporter inhibitors, dose response, cell-based, Clone20 osteoblasts, firefly luciferase, cherry-picked (AID 624132); type: functional;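 further: firefly luciferase luminescence from reporter carrying the Shn3 3'UTR in osteoblasts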
[15] = HepG2 cell cytotoxicity, dose response, cytotoxicity control for Shn3 inhibitor project, CellTiter-Glo, cherry-picked (AID 624134); type: functional, cell-based
[16] = control 3'UTR Renilla luciferase suppression, dose response, counter-screen for Shn3 inhibitor project, cell-based, Clone20-Shn3RL, cherry-picked (AID 624133); type: functional
[17] = target: T3, Rac GTPase-activating protein 1 (Homo sapiens, UniProt Q9H0H5); assay: MgcRacGAP GTPase-activating activity inhibitors, confirmation, biochemical, ADP Hunter fluorescence, primary and confirmatory (AID 624330); type: functional
T3 sequence (Q9H0H5 whole entry): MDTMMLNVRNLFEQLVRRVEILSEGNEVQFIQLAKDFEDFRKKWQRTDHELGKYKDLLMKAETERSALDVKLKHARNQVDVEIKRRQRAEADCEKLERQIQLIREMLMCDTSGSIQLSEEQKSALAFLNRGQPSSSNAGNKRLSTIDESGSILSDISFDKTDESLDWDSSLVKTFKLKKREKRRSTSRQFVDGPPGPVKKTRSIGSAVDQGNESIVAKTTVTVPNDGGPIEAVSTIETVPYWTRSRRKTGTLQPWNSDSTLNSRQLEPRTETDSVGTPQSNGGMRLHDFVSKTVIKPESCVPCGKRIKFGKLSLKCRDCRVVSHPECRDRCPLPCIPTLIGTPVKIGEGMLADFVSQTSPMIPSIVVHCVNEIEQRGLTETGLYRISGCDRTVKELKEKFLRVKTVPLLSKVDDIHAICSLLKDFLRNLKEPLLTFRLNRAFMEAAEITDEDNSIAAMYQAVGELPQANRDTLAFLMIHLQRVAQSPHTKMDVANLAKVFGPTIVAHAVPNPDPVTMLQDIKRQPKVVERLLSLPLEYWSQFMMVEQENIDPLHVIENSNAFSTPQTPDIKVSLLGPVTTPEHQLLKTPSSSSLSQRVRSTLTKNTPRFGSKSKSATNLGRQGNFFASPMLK

[18] = growth suppression of PTEN-null colon cells, dose response, cell-based, HCT116 PTEN knockout (AID 1047); type: functional;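 further: HCT116 colon tumor cells with PTEN knocked out; cells exposed to compound for 60 hours before readout; potency for loss of cell viability measured by luminescence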
[19] = growth suppression of beta-catenin-knockout colon cells, dose response, cell-based, HCT116, human colon tumor (AID 1045); type: functional;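 further: HCT116 colon tumor cells with beta catenin knocked out; cells exposed to compound for 60 hours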
[20] = target: T4, Replicative DNA helicase DnaB (Mycobacterium tuberculosis, UniProt P9WMR3); assay: DnaB intein splicing inhibitors, dose response, biochemical, cell-free fluorescence (AID 449749); type: functional
T4 sequence (P9WMR3 whole entry): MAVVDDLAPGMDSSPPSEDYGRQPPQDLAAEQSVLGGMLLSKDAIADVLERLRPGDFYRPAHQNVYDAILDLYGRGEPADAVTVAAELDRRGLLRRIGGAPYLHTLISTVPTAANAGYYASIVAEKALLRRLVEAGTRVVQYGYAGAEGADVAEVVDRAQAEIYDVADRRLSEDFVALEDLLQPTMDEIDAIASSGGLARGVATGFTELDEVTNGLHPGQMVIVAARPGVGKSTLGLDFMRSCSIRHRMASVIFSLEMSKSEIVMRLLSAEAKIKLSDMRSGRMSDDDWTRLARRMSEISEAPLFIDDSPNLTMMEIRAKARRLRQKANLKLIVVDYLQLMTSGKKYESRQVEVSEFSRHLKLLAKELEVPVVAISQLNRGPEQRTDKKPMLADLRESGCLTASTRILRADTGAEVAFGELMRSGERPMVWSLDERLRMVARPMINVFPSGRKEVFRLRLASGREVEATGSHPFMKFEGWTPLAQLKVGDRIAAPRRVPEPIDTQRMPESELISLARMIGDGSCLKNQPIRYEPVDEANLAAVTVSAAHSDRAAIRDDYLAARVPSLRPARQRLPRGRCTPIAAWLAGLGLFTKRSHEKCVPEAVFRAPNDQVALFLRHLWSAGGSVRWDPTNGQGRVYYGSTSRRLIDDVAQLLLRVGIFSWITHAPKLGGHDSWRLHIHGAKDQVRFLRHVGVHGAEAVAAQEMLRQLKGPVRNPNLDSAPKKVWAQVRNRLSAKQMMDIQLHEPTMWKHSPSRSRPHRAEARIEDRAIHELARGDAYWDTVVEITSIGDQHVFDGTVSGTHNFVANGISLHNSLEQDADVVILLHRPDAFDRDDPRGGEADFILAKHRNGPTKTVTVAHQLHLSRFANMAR

[21] = target: T5, Protein RecA (Mycobacterium tuberculosis, UniProt P9WHJ3); assay: Fluorescence Cell-Free Homogeneous Dose Retest to Identify Inhibitors of RecA-Intein Splicing Activity. [Related pubchem assays (depositor defined):AID2097, AID2223, AID489010, AID492950]; type: functional
T5 sequence (P9WHJ3 whole entry): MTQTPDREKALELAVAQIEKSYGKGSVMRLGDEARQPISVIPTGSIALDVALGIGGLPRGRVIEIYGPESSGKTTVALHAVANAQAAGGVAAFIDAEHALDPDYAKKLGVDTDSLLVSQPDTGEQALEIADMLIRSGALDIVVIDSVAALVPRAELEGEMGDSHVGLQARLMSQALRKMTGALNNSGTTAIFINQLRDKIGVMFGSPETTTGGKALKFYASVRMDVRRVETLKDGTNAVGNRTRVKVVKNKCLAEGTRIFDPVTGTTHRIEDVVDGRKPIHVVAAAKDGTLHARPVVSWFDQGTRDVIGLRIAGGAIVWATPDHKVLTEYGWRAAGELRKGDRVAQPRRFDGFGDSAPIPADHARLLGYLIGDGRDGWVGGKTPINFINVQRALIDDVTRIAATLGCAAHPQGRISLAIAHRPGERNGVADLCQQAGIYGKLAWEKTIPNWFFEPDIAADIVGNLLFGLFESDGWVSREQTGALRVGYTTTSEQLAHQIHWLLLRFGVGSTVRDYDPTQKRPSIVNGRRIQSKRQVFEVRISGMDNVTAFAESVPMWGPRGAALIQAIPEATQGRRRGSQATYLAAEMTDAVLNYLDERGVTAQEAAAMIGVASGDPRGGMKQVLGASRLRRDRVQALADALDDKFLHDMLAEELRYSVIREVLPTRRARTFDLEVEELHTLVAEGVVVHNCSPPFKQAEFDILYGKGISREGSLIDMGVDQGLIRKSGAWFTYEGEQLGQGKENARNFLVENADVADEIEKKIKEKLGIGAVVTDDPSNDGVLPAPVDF

[22] = microbe, parasite or virus in culture; type: functional; conditions: Mycobacterium tuberculosis

For COc1ccc(C2C(C#N)=C(N)OC3=C2C(=O)CC(C)(C)C3)cc1 (centres undefined), the EC50 [1] was 69.7 µM (active) and the EC50 [2] was > 300 µM (not active).

With Cn1c2ccccc2c2cc(C(=O)N3CCOCC3)sc21 the AC50 [3] was 39.8 µM (inconclusive), the AC50 [4] was 28.2 µM (inconclusive) and the AC50 [5] was “inconclusive”.

For CCOc1ccccc1N/C=C(\C#N)c1nc2ccccc2n1C, the EC50 [6] was > 120 µM (not active) and the EC50 [7] was > 120 µM (not active).

With COc1ccc(/C=C2\SC(=S)N(CCCC(=O)NC3CCCC3)C2=O)cc1OC the EC50 [1] was 57.5 µM (active) and the EC50 [2] was 55.7 µM (inconclusive).

For CC(=O)c1ccc(Oc2ncnc3sccc23)cc1, the EC50 [6] was 9.03 µM (active) and the EC50 [7] was 33.2 µM (active).

For COc1ccc(-c2nc(C#N)c(NCc3ccco3)o2)cc1, the EC50 [6] was 31.9 µM (active) and the EC50 [7] was 7.92 µM (active).

With COc1ccccc1C(CCNCc1ccc(N(C)C)cc1)c1ccc(OC(C)C)cc1 (centres undefined) the EC50 [8] was > 60 µM (not active), the EC50 [9] was > 120 µM (not active) and the EC50 [10] was 7.66 µM (active). The AC50 [11] was 5.31 µM (active), the IC50 [12] was 8.29 µM (active) and the AC50 [13] was 7.11 µM (active). The AC50 [14] was 6.48 µM (active), the AC50 [15] was 12.5 µM (active) and the AC50 [16] was 12 µM (active).

With COCCCNCCCCOc1c(Cl)cc(C)cc1Br.O=C(O)C(=O)O the IC50 [17] was 64.1 µM (active) and the AC50 [5] was “inconclusive”.

For CCOC(=O)N1CCN(C2=Nc3cccc4cccc2c34)CC1, the EC50 [1] was > 300 µM (not active) and the EC50 [2] was 60.2 µM (active).

For CCCCCc1cc(=O)oc2c(C(CCN3CCCC3)c3ccc(N(C)C)cc3)c(OC)cc(OC)c12 (centres undefined), the IC50 [12] was 6.41 µM (active).

For O=C(Nc1nnc(SCc2c(Cl)cccc2Cl)s1)C1CCCO1 (centres undefined), the AC50 [3] was 14.1 µM (inconclusive) and the AC50 [5] was “inconclusive”.

In the case of Cc1ccc(C(=O)NC(=S)Nc2ccc3c(c2)OCCO3)c(C)c1, the AC50 [3] is reported as 17.8 µM (inconclusive) and the AC50 [5] is reported as “inconclusive”.

For COc1ccc(OC)c(N2C(=O)NC(=O)/C(=C\c3c[nH]c4ccccc34)C2=O)c1, the EC50 [1] was > 300 µM (not active) and the EC50 [2] was > 300 µM (not active).

With N=c1c2c(-c3ccccc3)c(-c3ccccc3)n(Cc3ccco3)c2ncn1Cc1ccccc1 the EC50 [18] was 1.68 µM (active), the EC50 [19] was 1.35 µM (active) and the AC50 [20] was 3.08 µM (active). The EC50 [21] was 6.7 µM (active) and the AC50 [13] was 6.08 µM (active).

In the case of O=S(=O)(c1ccccc1)N1CCC2(CC1)CN(c1ccncc1)C2, the AC50 [4] is reported as 39.8 µM (inconclusive) and the AC50 [5] is reported as “inconclusive”.

With COc1ccc(C2Oc3ccccc3C3=C2C(c2cccs2)n2ncnc2N3)cc1 (centres undefined) the CC50 [22] was 16.8 µM (active), the EC50 [18] was 8.88 µM (active) and the EC50 [19] was 7.97 µM (active).

With Cc1ccc(C)n1-c1ccc(C(=O)O)cc1 the EC50 [1] was 13.9 µM (active) and the EC50 [2] was 20.5 µM (inconclusive).

With Cc1ccc(-n2nc(C)c(/C=N/NC(=O)c3ccc(O)cc3O)c2O)cc1 the EC50 [1] was 76.9 µM (active), the EC50 [2] was 22 µM (active) and the IC50 [12] was 4.44 µM (active).

In the case of CC1=C/C(=N\Nc2ccccc2[N+](=O)[O-])CC(C)(C)C1, the IC50 [12] is reported as 14.9 µM (active).

For COc1ccc(Cc2nnc(N/N=C/c3ccccc3O)nc2O)cc1OC, the AC50 [11] was 3.66 µM (active), the IC50 [12] was 1.42 µM (active) and the AC50 [13] was 0.834 µM (active).

With COc1cc(/C=N/NC(=O)CN2CC(c3ccccc3)CC2=O)ccc1OC(=O)N(C)C (centres undefined) the AC50 [3] was 22.4 µM (inconclusive) and the AC50 [5] was “inconclusive”.
